“Also recorded” adds a separate entry of the source. Read-outs that look alike come from different tables or passages of the source.
Assays:
[1] = Cmax minimum active dose AHL versus Cmax minimum adverse effect dose; cited from earlier work
rat mGlu5 [2] = molecular target: T1, rat mGlu5 (Rattus norvegicus, UniProt P31424); settings: cited from earlier work
[3] = cited from earlier work; for Seizure activity / liability in vivo: rodents
CA3 pyramidal neurons = settings: hippocampal preparations; prior studies; cited from earlier work
[4] = system: Schaffer collateral – CA1 (SC-CA1) synapse; settings: cited from earlier work
[5] = human; cited from earlier work
[6] = rat; cited from earlier work
[7] = cited from earlier work
mGlu5 W784A = mGlu5 W784A (Rattus norvegicus, UniProt P31424, W784A); assay: Progressive fold-shift at mGlu5 point mutant, operational model of allosterism
Chain of mGlu5 W784A (P31424 21-1203 W784A): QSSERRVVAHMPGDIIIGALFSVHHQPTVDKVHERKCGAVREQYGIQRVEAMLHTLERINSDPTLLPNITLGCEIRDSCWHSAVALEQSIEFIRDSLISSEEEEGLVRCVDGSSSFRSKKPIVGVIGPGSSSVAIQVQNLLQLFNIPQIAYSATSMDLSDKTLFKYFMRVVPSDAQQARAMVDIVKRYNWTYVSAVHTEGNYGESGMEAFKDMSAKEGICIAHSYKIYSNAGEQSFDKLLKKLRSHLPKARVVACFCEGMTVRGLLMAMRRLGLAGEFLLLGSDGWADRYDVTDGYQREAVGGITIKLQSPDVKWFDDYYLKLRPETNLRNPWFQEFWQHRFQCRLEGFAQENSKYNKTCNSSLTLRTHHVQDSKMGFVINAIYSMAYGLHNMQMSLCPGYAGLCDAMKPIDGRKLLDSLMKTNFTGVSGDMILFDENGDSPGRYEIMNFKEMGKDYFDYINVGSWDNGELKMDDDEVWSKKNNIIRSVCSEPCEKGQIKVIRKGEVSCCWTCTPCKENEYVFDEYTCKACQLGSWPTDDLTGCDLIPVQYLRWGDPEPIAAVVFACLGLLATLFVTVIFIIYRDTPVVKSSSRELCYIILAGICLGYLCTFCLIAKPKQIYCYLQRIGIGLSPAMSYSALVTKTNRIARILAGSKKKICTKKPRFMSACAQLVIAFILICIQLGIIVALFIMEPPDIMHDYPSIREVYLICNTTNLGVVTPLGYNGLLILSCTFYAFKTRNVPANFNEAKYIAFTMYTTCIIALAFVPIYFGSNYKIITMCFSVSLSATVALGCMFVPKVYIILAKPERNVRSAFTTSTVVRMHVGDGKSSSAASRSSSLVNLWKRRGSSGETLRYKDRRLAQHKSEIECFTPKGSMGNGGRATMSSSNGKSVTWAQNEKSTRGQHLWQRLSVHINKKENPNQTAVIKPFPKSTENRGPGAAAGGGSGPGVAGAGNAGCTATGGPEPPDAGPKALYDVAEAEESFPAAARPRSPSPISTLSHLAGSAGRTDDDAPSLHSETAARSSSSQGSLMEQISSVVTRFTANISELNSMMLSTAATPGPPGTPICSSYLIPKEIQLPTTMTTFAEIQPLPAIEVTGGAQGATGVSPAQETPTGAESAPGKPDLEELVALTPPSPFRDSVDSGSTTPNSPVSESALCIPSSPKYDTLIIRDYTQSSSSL

rat mGlu5 [8] = molecular target: T1, rat mGlu5; settings: increasing concentrations
[9] = system: panel of 68 GPCRs, ion channels and transporters; assay: Off-target panel screen; format: binding; settings: 10 µM, 68 targets
[10] = system: Schaffer collateral – CA1 (SC-CA1) synapse; assay: Long-term depression; settings: compound on its own, rat hippocampus
mGlu5 S808A = mGlu5 S808A (Rattus norvegicus, UniProt P31424, S808A); assay: Progressive fold-shift at mGlu5 point mutant, operational model of allosterism
Chain of mGlu5 S808A (P31424 21-1203 S808A): as the sequence (P31424 21-1203 W784A) above, with A764W, S788A counted along it

rat mGlu5 [11] = molecular target: T1, rat mGlu5; settings: operational model of allosterism
[12] = Amphetamine induced hyperlocomotion, in vivo model of psychosis; settings: high dose, preliminary

T1 sequence (P31424 21-1203): as the sequence (P31424 21-1203 W784A) above, with A764W counted along it

For C[C@@H]1CC[C@H](c2noc(-c3ccc(F)cn3)n2)CN1C(=O)c1ccccc1 [Compound 5PAM523], the Therapeutic index [1] is listed as 2 fold.
For O=C1c2ccc(F)cc2CCC2CC[C@@H](c3noc(-c4ccc(F)cn4)n3)CN12 (stereo partly shown) [Compound 5PAM916], the Therapeutic index [1] is listed as 18 fold.
In the case of C[C@@H](NC(=O)c1ccc(C#Cc2cccc(F)c2)cn1)C(C)(C)O [Compound 19, (R)-5-((3-Fluorophenyl)ethynyl)-N-(3-hydroxy-3-methylbutan-2-yl)picolinamide], the “Allosteric agonism in mGlu5 cell line with low receptor density” value (rat mGlu5 [2]) is given as “ago-PAM activity”, the “Seizure activity / liability in vivo” value [3] is given as “causes seizure activity” and the “Epileptiform activity in CA3 pyramidal neurons” value (CA3 pyramidal neurons) is given as “induction of epileptiform activity”. For the same molecule, the “Induction of LTD at SC-CA1 synapse” value [4] was “induces LTD”.
In the case of O=C(c1ccc(C#Cc2cccc(F)c2)nc1)N1CCC(O)CC1 [Compound 20], the “Allosteric agonism in mGlu5 cell line with low receptor density” value (rat mGlu5 [2]) is listed as “devoid of agonism” and the “Seizure activity / liability in vivo” value [3] is listed as “did not display a seizure liability”.
In the case of O=C(NC1CCC1)c1ccc(C#Cc2cccc(F)c2)cn1 [Compound 21], the “Agonist activity in mGlu5 low-expressing cell line” value (rat mGlu5 [2]) is given as “demonstrates agonist activity”, the Plasma protein binding [5] is given as > 99 % bound and the fu plasma [5] is given as < 1%. For the same molecule, the “Seizure liability in animal models” value [3] was “possesses a seizure liability”, the Plasma protein binding [6] was > 99 % bound and the fu plasma [6] was < 1%.
In the case of O=C(N[C@H]1C[C@H](O)C1)c1ccc(C#Cc2cccc(F)c2)cn1 [Compound 22], the “Agonist activity in mGlu5 low-expressing cell line” value (rat mGlu5 [2]) is given as “significant ago-PAM activity”.
For O=C(NC1CCC1)c1ccc(C#Cc2cccc(F)c2)nc1 [Compound 26], the Plasma protein binding [7] is given as 98.9%.
For C[C@@H](NC(=O)c1ccc(C#Cc2ccccn2)cn1)C(C)(C)O [Compound 31i, (R)-N-(3-Hydroxy-3-methylbutan-2-yl)-5-(pyridin-2-ylethynyl)picolinamide], the “Effect of W784A mutation” value (mGlu5 W784A) was “gain in allosteric agonist activity”.
In the case of CC1(NC(=O)c2ccc(C#Cc3cccc(F)c3)cn2)COC1 [Compound 38t, 5-((3-Fluorophenyl)ethynyl)-N-(3-methyloxetan-3-yl)picolinamide], the “Inhibition of [^3H]methoxyPEPy binding” value (rat mGlu5 [8]) is reported as “complete inhibition”, the Off target activity [9] is reported as “no significant off target activity” and the “Induction of LTD at SC-CA1 synapse” value [10] is reported as “no effect; also recorded: does not induce LTD”. For the same molecule, the “Effect of S808A mutation” value (mGlu5 S808A) was “NAM switch”, the “Efficacy cooperativity factor (logβ) between glutamate and modulator” value (rat mGlu5 [11]) was 0.34 and the “Predicted affinity (log value)” value (rat mGlu5 [11]; progressive fold-shift) was −6.81. The Behavioral disturbances [12] was “no overt behavioral disturbances” and the “Reversal of amphetamine induced hyperlocomotion” value ([12]; data not shown) was “robust reversal”.

— paper PMC3908770 (Journal of medicinal chemistry, 2013)
